Assay results: article PMC11986180, “ZIF-8 Selective Dispersive Solid-Phase Extraction-LC-MS/MS Method for the Determination of Aconitine alkaloids in Rat Plasma: Application in Pharmacokinetic Studies” (Journal of Analytical Methods in Chemistry, 2025)
Where two headings read alike, the source gives them in different places.

Key:
[1] = format: physicochemical, rat
Method: Aconitine, hypaconitine, mesaconitine, lappaconitine, benzoylaconitine, and yohimbine were individually dissolved in 10 mL of methanol to prepare the stock solution. These compounds were subsequently diluted with methanol to achieve final concentrations of 10 and 5.0 μg/mL to prepare the working standard solutions, which were stored at 4°C before use. Under the optimized conditions, 10 μL of the working standard solution and IS (5.0 μg/mL), along with 15 mg of ZIF-8, was added to 200 μL of blank rat plasma and various blank tissue homogenates. The final concentrations of the calibration standard samples were 0.3125, 0.625, 1.5625, 3.125, 6.25, 12.5, 25, 50, 100, 500, and 1000 ng/mL. Plasma quality control (QC) samples were prepared at concentrations of 0.625, 6.25, 10, and 50 ng/mL. Standard calibration samples and HPLC–MS samples were stored at −20°C until analysis.
Stability tests were conducted to replicate real-world conditions that samples are likely to encounter. […]

[2] = Pharmacokinetics of aconitine alkaloids in rat plasma after oral administration of Fuzi extract (d-SPE-LC-MS/MS); format: in vivo, Sprague–Dawley rats; conditions: for AUC(0-inf) / AUC(0-t) / half-life / MRT last / MRT inf / Tmax: n = 6, oral (gastric gavage) 10 mg/kg Fuzi extract; for half-life: one-compartment model; for MRT last: read-out: MRT0-t; for MRT inf: read-out: MRT0-∞; for Cmax: oral 10 mg/kg Fuzi extract, read-out: maximum concentrations (Cmax); for Tmax: 10 mg/kg
Method: Male Sprague–Dawley rats (250–300 g, 8–10 weeks old) were procured from Shenzhen Bao'an Authentic TCM Therapy Hospital (Guangzhou, China) and acclimatized in a controlled environment (temperature: 25°C ± 2°C; humidity: 50% ± 5%; 12-h dark–light cycle) for at least 3 days before experimentation (Animal License Number: SCXK [Guangdong] 2022-0002). Laboratory animal compound feed (Guangdong Feeding Certificate: 2019, No. 05,073) was provided. All animal experiments were performed in accordance with the Guide for the Care and Use of Laboratory Animals by the National Institutes of Health. Ethical approval for the animal studies was obtained from the Ethics Committee of Sinopharm Dongfeng General Hospital. The animal protocols used in this study were approved by the Institutional Animal Care and Use Committee of Sinopharm Dongfeng General Hospital.
The crude powder of Fuzi (50 g) was decocted in 500 mL of water for 1 h to obtain the crude extract, which was then concentrated to 100 mL and stored at 4°C.
All rats were maintained under standard conditions with ad libitum access to food and water. They were divided into two groups: Group 1 was used to prepare blank plasma samples, and Group 2 was designated for pharmacokinetic studies. Drug-free rat plasma was collected via suborbital venous hemorrhage. Pharmacokinetic studies involved continuous blood sampling from the suborbital venous plexus, as described previously. Each rat was administered a 10 mg/kg dose of Fuzi extract via gastric gavage. Blood samples (200 μL) were collected at […] time points (0, 0.25, 0.50, 0.75, 1.0, 2.0, 3.0, 4.0, 6.0, 8.0, 10, 12, and 24 h postadministration) for pharmacokinetic analysis. The samples were collected into microtubes containing 5 μL of heparin, followed by centrifugation at 4000 rpm for 10 min. The resulting plasma ([…]) was separated and immediately frozen at −20°C for further analysis. Figure 2 illustrates the typical d-SPE–LC/MS profile of blank plasma and aconitine alkaloids, showing distinct peaks in rat plasma at 1 h postadministration without interference from endogenous peaks, thus maintaining a stable baseline for analyte and IS detection.
Before solid-phase extraction, ZIF-8 was activated by placing it in a vacuum-drying oven at 60°C for 24 h to remove surface-adsorbed water and other volatile substances. Rat plasma (100 μL) was combined with 350 μL of a 50% acetonitrile–water solution and 50 μL of yohimbine (IS). Following this, 15 mg of ZIF-8 was added to the mixture, which was then shaken for 18 min for extraction. After centrifugation, the adsorbent remained in the tube while the supernatant was discarded. Subsequently, 1000 μL of methanol was added to the tube, and ultrasonic elution of the nanocomposite was performed for 5 min. After centrifugation to collect the ZIF-8 nanocomposites, 900 μL of the eluent was evaporated using N2 flow at 40°C. The resulting residue was redissolved in 50 μL of methanol to obtain the final sample solution and analyzed by HPLC–MS/MS. The extraction process for aconitine alkaloids is depicted in Figure 3.
The pharmacokinetic parameters of aconitine alkaloids in rats were calculated using Phoenix WinNonlin 8.3 software. The maximum plasma concentration (Cmax) and the time to reach Cmax (Tmax) were directly derived from the experimental data. The elimination rate constant (Ke) was determined by linear regression of the terminal semilogarithmic plot of plasma concentration versus time, and the elimination half-life (t1/2) was calculated as 0.693/Ke. All data are presented as mean ± standard deviation.
The plasma concentrations of five aconitine alkaloid species from Fuzi were quantified using the present method. The peak plasma concentrations of aconitine, hypaconitine, mesaconitine, lappaconitine, and benzoylaconitine were reached within 0.75 h, indicating rapid absorption into the systemic circulation. […]

[3] = male, Sprague-Dawley, rat, plasma, po, read-out: Tmax
[4] = Automatic (24 h), plasma QC 6.25 ng/mL
[5] = Automatic (24 h), plasma QC 50 ng/mL
[6] = Freeze (−80°C for 30 d), plasma QC 6.25 ng/mL
[7] = Freeze (−80°C for 30 d), plasma QC 50 ng/mL
[8] = Freeze-thaw (three times), plasma QC 6.25 ng/mL
[9] = Freeze-thaw (three times), plasma QC 50 ng/mL
[10] = Room temperature (8 h), plasma QC 6.25 ng/mL
[11] = Room temperature (8 h), plasma QC 50 ng/mL

SMILES | AUC(0-inf) ([2]; male, Sprague-Dawley) [ng·h/mL] | AUC(0-t) ([2]; male, Sprague-Dawley) [ng·h/mL] | half-life ([2]; male, Sprague-Dawley) [h] | MRT last ([2]; male, Sprague-Dawley) [h] | MRT inf ([2]; male, Sprague-Dawley) [h] | Cmax ([2]; male, Sprague-Dawley) [ng/mL] | Tmax [2, 3] [h] | Tmax [2] [h] | Stability RE % [1, 4] [%] | Stability RE % [1, 5] [%] | Stability RE % [1, 6] [%] | Stability RE % [1, 7] [%] | Stability RE % [1, 8] [%] | Stability RE % [1, 9] [%] | Stability RE % [1, 10] [%] | Stability RE % [1, 11] [%] | also measured
CCN1CC2(OC(=O)c3ccccc3NC(C)=O)CCC(OC)C34C1C(CC23)C1(O)CC(OC)C2CC4C1(O)C2OC (stereo not shown) [Lappaconitine] | 2.421 ± 0.0223 | 2.4 ± 0.0276 | 3.83 ± 0.791 | 4.47 ± 0.0814 | 4.71 ± 0.206 | 1.28 ± 0.121 | ≤ 0.75 | 0.5 |  |  |  |  |  |  |  |  | Stability RE % ([1]; Automatic (24 h), plasma QC 3.125 ng/mL): −0.82%; Stability RE % ([1]; Automatic (24 h), plasma QC 25 ng/mL): −7.41%; Stability RE % ([1]; Freeze (−80°C for 30 d), plasma QC 3.125 ng/mL): −0.68%; Stability RE % ([1]; Freeze (−80°C for 30 d), plasma QC 25 ng/mL): −9.65%; Stability RE % ([1]; Freeze-thaw (three times), plasma QC 3.125 ng/mL): −2.04%; Stability RE % ([1]; Freeze-thaw (three times), plasma QC 25 ng/mL): −10.40%; Stability RE % ([1]; Room temperature (8 h), plasma QC 3.125 ng/mL): −0.52%; Stability RE % ([1]; Room temperature (8 h), plasma QC 25 ng/mL): −6.67%
CCN1C[C@]2(COC)[C@H](O)C[C@H](OC)[C@@]34[C@@H]5C[C@@]6(O)[C@H](OC(=O)c7ccccc7)[C@@H]5[C@@](OC(C)=O)([C@@H]([C@H](OC)[C@H]23)[C@@H]14)[C@@H](O)[C@@H]6OC [Aconitine] | 26.9 ± 0.696 | 25.3 ± 0.566 | 5.77 ± 0.348 | 7.11 ± 0.143 | 8.59 ± 0.349 | 7.47 ± 0.732 | ≤ 0.75 | 0.5 | 4.19 | −10.01 | 4.94 | −9.37 | 3.96 | −8.46 | −1.08 | −8.69 | 
COCC12CN(C)C3C4C(OC)C1C3(C(OC)CC2O)C1CC2(O)C(OC)C(O)C4(OC(C)=O)C1C2OC(=O)c1ccccc1 (stereo not shown) [Mesaconitine] | 8.11 ± 0.46 | 7.7 ± 0.411 | 5.35 ± 0.562 | 5.69 ± 0.188 | 7.03 ± 0.479 | 1.71 ± 0.0446 | ≤ 0.75 | 0.75 | −9.09 | −9.89 | −7.23 | −9.46 | −1.29 | −7.50 | 0.97 | −12.74 | 
COC[C@@]12CC[C@H](OC)[C@]34C(C([C@H](OC)[C@H]13)[C@]1(OC(C)=O)[C@H]3[C@@H](OC(=O)c5ccccc5)[C@](O)(C[C@H]34)[C@@H](OC)[C@@H]1O)N(C)C2 [Hypaconitine] | 80.5 ± 2.91 | 47.3 ± 1.33 | 21.2 ± 0.505 | 8.627 ± 0.0519 | 27.6 ± 0.562 | 9.92 ± 0.33 | ≤ 0.75 | 0.5 | −8.00 | 1.32 | −3.27 | −2.50 | 0.31 | 3.47 | −7.92 | −7.90 | 
CCN1CC2(COC)C(O)CC(OC)C34C5CC6(O)C(OC)C(O)C(O)(C5C6OC(=O)c5ccccc5)C(C(OC)C23)C14 (stereo not shown) [Benzoylaconitine] | 14.1 ± 9.31 | 3.76 ± 0.0401 | 62.4 ± 57.4 | 9.95 ± 0.374 | 87.9 ± 79.7 | 0.939 ± 0.199 |  | 0.25 | −8.67 | −9.65 | −7.70 | −10.48 | −6.91 | −10.57 | −7.89 | −7.98 | 
